Assay results: BindingDB's records for doi:10.3109/14756366.2011.621122 (Ondokuz Mayis University, 2012)

Tests used:
Experiment in all cases: CA Activity Assay
Conditions in all cases: pH 7.4
[1] = molecular target: T1, Carbonic anhydrase 3 (Bos taurus, UniProt Q3SZX4)
T1 sequence (Q3SZX4 whole entry): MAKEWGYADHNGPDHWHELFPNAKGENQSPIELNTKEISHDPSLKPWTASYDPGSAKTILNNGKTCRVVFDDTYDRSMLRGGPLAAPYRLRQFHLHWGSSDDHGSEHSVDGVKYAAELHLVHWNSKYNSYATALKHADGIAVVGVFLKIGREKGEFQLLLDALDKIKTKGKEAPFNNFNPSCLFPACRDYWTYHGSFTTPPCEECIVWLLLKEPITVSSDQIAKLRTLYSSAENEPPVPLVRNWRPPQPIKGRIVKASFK

[2] = molecular target: Carbonic anhydrase 1 (Homo sapiens, UniProt P00915)
Sequence of Carbonic anhydrase 1 (P00915 whole entry): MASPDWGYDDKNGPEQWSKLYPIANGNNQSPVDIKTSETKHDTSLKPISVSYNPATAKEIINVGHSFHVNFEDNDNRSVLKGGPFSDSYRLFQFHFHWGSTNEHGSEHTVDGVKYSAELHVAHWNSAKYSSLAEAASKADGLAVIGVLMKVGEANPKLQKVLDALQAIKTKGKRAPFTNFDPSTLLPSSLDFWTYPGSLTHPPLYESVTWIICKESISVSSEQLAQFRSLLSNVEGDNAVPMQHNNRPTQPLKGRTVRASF

[3] = molecular target: Carbonic anhydrase 2 (Homo sapiens, UniProt P00918)
[4] = molecular target: Carbonic anhydrase 6 (Homo sapiens, UniProt P23280)
Sequence of Carbonic anhydrase 6 (P23280 whole entry): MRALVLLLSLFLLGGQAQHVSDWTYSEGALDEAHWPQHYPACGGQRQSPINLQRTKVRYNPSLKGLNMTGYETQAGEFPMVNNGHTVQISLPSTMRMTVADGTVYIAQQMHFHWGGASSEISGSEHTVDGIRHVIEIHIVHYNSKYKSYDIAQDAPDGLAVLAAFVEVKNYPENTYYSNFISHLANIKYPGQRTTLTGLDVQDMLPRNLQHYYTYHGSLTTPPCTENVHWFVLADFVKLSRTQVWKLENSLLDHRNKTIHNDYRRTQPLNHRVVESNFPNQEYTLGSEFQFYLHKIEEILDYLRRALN

| Compound | IC50 [1] [µM] | Ki [1] [µM] | Ki [2] [µM] | Ki [3] [µM] | Ki [4] [µM] |
| --- | --- | --- | --- | --- | --- |
| Oc1ccccc1 | 4.63 | – | – | – | – |
| c1ccc(-c2cc(OCCCN3CCCC3)nc(-c3ccccc3)n2)cc1 | 66.7 | – | – | – | – |
| Oc1ccccc1O [1,2-Dihydroxybenzene, XI] | 5.79 | – | – | – | – |
| O[C@@H]1CCCC[C@H]1O [(1R,2R)-trans-1,2-cyclohexanediol] | – | 4.28 | – | – | – |
| Cc1ccc(S(=O)(=O)Nc2ccccc2)cc1 [CA inhibitor, 2] | – | 13.1 | 210 | 14.3 | 13.5 |
| Cc1ccc(NS(=O)(=O)c2ccc(C)cc2)cc1 [Carbonic anhydrase inhibitors (CAIs), 1] | – | 2.43 | 50.1 | 1.03 | 24.3 |
| Cc1ccc(S(=O)(=O)N[C@@H]2C=CCC[C@@H]2O)cc1 [Carbonic anhydrase inhibitors (CAIs), 3] | – | 2.67 | 70.2 | 3.72 | 4.48 |
| Cc1ccc(S(=O)(=O)N2[C@@H]3C=CCC[C@@H]3OC2(C)C)cc1 [Carbonic anhydrase inhibitors (CAIs), 4] | – | 57.4 | 379 | 21.7 | 275 |
| Cc1ccc(S(=O)(=O)N[C@@H]2[C@@H](O)[C@@H](O)CC[C@@H]2O)cc1 [Carbonic anhydrase inhibitors (CAIs), 5] | – | 0.59 | 5.48 | 0.47 | 1.12 |
| Cc1ccc(S(=O)(=O)N[C@@H]2[C@@H](O)[C@H](O)CC[C@@H]2O)cc1 [Carbonic anhydrase inhibitors (CAIs), 6] | – | 1.75 | 9.34 | 0.82 | 3.78 |
| O[C@@H]1CCCC[C@@H]1O [Carbonic anhydrase inhibitors (CAIs), 7] | – | 1.19 | 21.7 | 1.84 | 16.7 |
| Nc1ccc(S(=O)(=O)Nc2ccccn2)cc1 [MLS000069725] | – | 93.2 | 26.2 | 0.348 | 11.7 |
